Where two headings read alike, the source gives them in different places.
How the values were obtained:
[1] = Microsomal stability assay, rat liver microsomes;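 also: rat liver microsomes (0.25 mg/mL) with about 1 µM compound plus 1 mM NADPH, pH 7.4, 37 °C for 30 min, parent left measured by LC-MS/MS against 0 min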
[2] = target: Beta Secretase enzyme (BACE) (Homo sapiens, UniProt P56817); assay: In vitro enzymatic BACE FRET (fluorescence resonance energy transfer) assay; assay type: biochemical;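 also: fluorescence read after 1 h with 50 nM quenched peptide substrate spanning the BACE cleavage site, in pH 4.2 acetate buffer containing 10% DMSO and nonionic detergent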
Sequence of Beta Secretase enzyme (BACE) (P56817 46-501): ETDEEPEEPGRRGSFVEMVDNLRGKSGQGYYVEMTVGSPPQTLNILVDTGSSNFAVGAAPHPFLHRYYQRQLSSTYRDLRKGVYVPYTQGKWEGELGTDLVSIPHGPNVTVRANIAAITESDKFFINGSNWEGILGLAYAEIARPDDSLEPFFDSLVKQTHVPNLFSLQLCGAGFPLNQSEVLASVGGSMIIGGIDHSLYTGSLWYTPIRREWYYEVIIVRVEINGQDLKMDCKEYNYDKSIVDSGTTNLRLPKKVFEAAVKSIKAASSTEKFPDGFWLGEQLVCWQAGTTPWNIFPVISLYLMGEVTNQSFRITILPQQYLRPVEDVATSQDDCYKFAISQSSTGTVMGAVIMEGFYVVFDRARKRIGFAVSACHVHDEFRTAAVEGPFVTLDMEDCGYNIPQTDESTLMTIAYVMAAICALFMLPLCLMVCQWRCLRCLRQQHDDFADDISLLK

CYP3A4 (CYP3A) = CYP3A4 (CYP3A) (Homo sapiens, UniProt P08684); assay: in vitro; settings: microsomes, pH 7.4;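 also: inhibition of CYP3A-mediated 1-hydroxymidazolam formation after 10 min incubation with NADPH, quantified by HPLC MS relative to metabolite produced without test compound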
Sequence of CYP3A4 (CYP3A) (P08684 2-503): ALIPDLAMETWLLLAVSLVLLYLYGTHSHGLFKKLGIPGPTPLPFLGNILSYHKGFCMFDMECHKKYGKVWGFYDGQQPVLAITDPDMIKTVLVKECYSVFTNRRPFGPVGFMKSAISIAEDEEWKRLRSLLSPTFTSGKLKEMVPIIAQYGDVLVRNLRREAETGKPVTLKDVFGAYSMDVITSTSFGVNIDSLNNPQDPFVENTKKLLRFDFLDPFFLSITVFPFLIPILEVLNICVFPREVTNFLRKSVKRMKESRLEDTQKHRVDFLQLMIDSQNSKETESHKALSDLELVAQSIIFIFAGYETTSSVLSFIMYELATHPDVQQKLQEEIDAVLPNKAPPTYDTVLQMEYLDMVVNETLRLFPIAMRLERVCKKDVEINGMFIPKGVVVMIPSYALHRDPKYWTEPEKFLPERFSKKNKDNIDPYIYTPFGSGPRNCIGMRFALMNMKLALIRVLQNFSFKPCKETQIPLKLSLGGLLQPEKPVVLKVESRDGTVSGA

[3] = Microsomal stability assay, human liver microsomes;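 also: pooled human liver microsomes at 0.25 mg/mL with 1 µM compound and NADPH at 37 °C, pH 7.4, for 30 min, unchanged parent quantified by LC-MS/MS against the 0 min sample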
CYP2D6 = CYP2D6 (Homo sapiens, UniProt P10635); assay: CYP2D6 inhibition assay (bufuralol, pooled human liver microsomes)
Sequence of CYP2D6 (P10635 whole entry): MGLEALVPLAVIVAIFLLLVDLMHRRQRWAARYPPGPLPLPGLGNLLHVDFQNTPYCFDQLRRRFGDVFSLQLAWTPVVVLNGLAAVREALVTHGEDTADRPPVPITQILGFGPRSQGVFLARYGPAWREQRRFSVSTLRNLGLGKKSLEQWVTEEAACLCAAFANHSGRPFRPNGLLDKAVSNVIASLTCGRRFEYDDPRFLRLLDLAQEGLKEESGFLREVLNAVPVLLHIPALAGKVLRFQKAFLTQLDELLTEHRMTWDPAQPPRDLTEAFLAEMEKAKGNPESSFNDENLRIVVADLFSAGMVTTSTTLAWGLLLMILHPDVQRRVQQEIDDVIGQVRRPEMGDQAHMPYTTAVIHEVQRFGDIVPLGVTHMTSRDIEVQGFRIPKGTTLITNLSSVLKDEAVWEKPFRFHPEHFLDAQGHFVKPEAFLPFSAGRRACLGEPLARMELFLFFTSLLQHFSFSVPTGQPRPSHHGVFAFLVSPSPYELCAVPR

[4] = test system: Aβ40 in conditioned medium of cells stably expressing Amyloid Precursor Protein (APP); assay: In vitro BACE cell-based assay (Aβ40 in conditioned medium, sandwich ELISA); settings: Homo sapiens;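 also: compounds added as a dilution series, secreted peptide quantified by europium time-resolved fluorescence readout, potency fitted from percent of control versus compound concentration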
[5] = BACE enzyme assay, IC50's in uM, read-out: BACE1 FRET assay
[6] = 2D6 IC50, CYP enzyme inhibition
[7] = HEK293, cell-based assay, HEK cells, IC50's in uM, read-out: HEK cell assay
[8] = BACE enzyme assay IC50, read-out: BACE1 FRET assay
[9] = 2D6 IC50 (uM), CYP2D6 inhibition
[10] = HEK293, HEK cell-based assay IC50, read-out: HEK cell assay
[11] = read-out: BACE1 FRET assay (IC50)
[12] = HEK293, HEK cells, read-out: HEK cell assay (IC50)
[13] = BACE enzyme assay, read-out: BACE1 FRET assay
[14] = 2D6 IC50 (uM), CYP enzyme inhibition
[15] = HEK293, HEK cells, read-out: HEK cell assay
[16] = Table 2, read-out: BACE1 FRET assay
[17] = HEK293, Table 2, HEK cells, read-out: HEK cell assay

Row | SMILES | RLM ([1]; rat liver microsomal data) | IC50 (CYP3A4 (CYP3A)) | HLM ([3]; human liver microsomal data) | IC50 (CYP2D6; [6]) | RLM ([1]; rat liver microsomes) | HLM ([3]; human liver microsomes) | IC50 (CYP2D6; [14]) | also measured
1 | CC(C)(C)Cc1cnc2c(c1)[C@@H](NC[C@@H](O)[C@H](Cc1cccc(-c3nccs3)c1F)NC(=O)[C@@H]1CCCO1)CC1(CCC1)O2 [compound 910] | 153 µL/min/mg | 0.1 µM | 147 µL/min/mg | 2.4 µM | – | – | – | IC50 [2, 5]: 0.079 µM; IC50 [4, 7]: 0.079 µM
2 | CNc1nc(CC(C)(C)C)cc2c1OC1(CCC1)C[C@@H]2NC[C@@H](O)[C@H](Cc1ccc(F)c(-c2nccs2)c1)NC(=O)COC [compound 716, N-((1S,2R)-3-(((4′S)-6′-(2,2-dimethylpropyl)-8′-(methylamino)-3′,4′-dihydrospiro[cyclobutane-1,2′-pyrano[2,3-c]pyridin]-4′-yl)amino)-1-(4-fluoro-3-(1,3-thiazol-2-yl)benzyl)-2-hydroxypropyl)-2-methoxyacetamide] | – | 0.4 µM | – | – | 190 µL/min/mg | 123 µL/min/mg | – | IC50 [2, 8]: 0.032 µM; IC50 (CYP2D6; [9]): 1.5 µM; IC50 [4, 10]: 0.025 µM
3 | COCC(=O)N[C@@H](Cc1cccc(F)c1)[C@H](O)CN[C@H]1CC2(CCC2)Oc2c(-c3ccnc(Cl)c3)cc(CC(C)(C)C)cc21 [compound 639, N-((1S,2R)-3-(((4S)-8-(2-chloro-4-pyridinyl)-6-(2,2-dimethylpropyl)-3,4-dihydrospiro[chromene-2,1′-cyclobutan]-4-yl)amino)-1-(3-fluorobenzyl)-2-hydroxypropyl)-2-methoxyacetamide] | – | 1.2 µM | – | – | 399 µL/min/mg | 706 µL/min/mg | – | IC50 [2, 11]: 0.005 µM; IC50 (CYP2D6; 2D6 IC50, CYP2D6 inhibition): 1.8 µM; IC50 [4, 12]: 0.025 µM
4 | COCC(=O)N[C@@H](Cc1ccc2c(c1)OCO2)[C@H](O)CN[C@H]1CC2(CCC2)Oc2ncc([C@H]3CC3(C)C)cc21 [compound 576] | – | 0.1 µM | – | – | 209 µL/min/mg | 31 µL/min/mg | – | IC50 [2, 11]: 0.328 µM; IC50 (CYP2D6; 2D6 IC50, CYP2D6 inhibition): 2.7 µM; IC50 [4, 12]: 0.249 µM
5 | COC(OC)C(=O)N[C@@H](Cc1ccc2c(c1)OCO2)[C@H](O)CN[C@H]1CC2(CCC2)Oc2ncc(CC(C)C)cc21 [compound 754, N-((1S,2R)-1-(1,3-benzodioxol-5-ylmethyl)-2-hydroxy-3-(((4′S)-6′-(2-methylpropyl)-3′,4′-dihydrospiro[cyclobutane-1,2′-pyrano[2,3-b]pyridin]-4′-yl)amino)propyl)-2,2-dimethoxyacetamide] | – | 0.1 µM | – | – | 86 µL/min/mg | 29 µL/min/mg | – | IC50 [2, 8]: 0.037 µM; IC50 (CYP2D6; [9]): 3.5 µM; IC50 [4, 10]: 0.054 µM
6 | COCC(=O)N[C@@H](Cc1ccc(F)cc1)[C@H](O)CN[C@H]1CC2(CCC2)Oc2c1cc(CC(C)(C)C)nc2-c1ccncc1 [compound 549] | 122 µL/min/mg | 0.1 µM | 38 µL/min/mg | – | – | – | 2 µM | IC50 [2, 13]: 0.071 µM; IC50 [4, 15]: 0.296 µM
7 | CO[C@H](C)C(=O)N[C@@H](Cc1ccc(F)cc1)[C@H](O)CN[C@H]1CC2(CCC2)Oc2c1cc(CC(C)(C)C)nc2-c1ccncc1 [compound 527] | 108 µL/min/mg | 0.1 µM | 33 µL/min/mg | – | – | – | 0.6 µM | IC50 [2, 13]: 0.222 µM; IC50 [4, 15]: 1.95 µM
8 | CO[C@H](C)C(=O)N[C@@H](Cc1ccc(F)c(-c2nccs2)c1)[C@H](O)CN[C@H]1CC2(CCC2)Oc2ncc(CC(C)(C)F)cc21 [compound 760] | 31 µL/min/mg | 0.3 µM | 26 µL/min/mg | – | – | – | 0.8 µM | IC50 [2, 5]: 0.031 µM; IC50 ([4]; HEK293, HEK cell-based assay, IC50's in uM, read-out: HEK cell assay): 0.1 µM
9 | COCC(=O)N[C@@H](Cc1cc(F)cc(F)c1)[C@H](O)CN[C@H]1CC2(CCC2)Oc2c(-c3nccs3)cc(CC(C)(C)C)cc21 [compound 463] | 662 µL/min/mg | 1.1 µM | 682 µL/min/mg | 7.2 µM | – | – | – | IC50 [2, 16]: 0.003 µM; IC50 [4, 17]: 0.048 µM
10 | COCC(=O)N[C@@H](Cc1ccnc(OC)c1)[C@H](O)CN[C@H]1CC2(CCC2)Oc2ncc(CC(C)(C)C)cc21 [compound 474] | 174 µL/min/mg | 2 µM | 172 µL/min/mg | 6.5 µM | – | – | – | IC50 [2, 16]: 0.013 µM; IC50 [4, 17]: 0.022 µM
11 | COCC(=O)N[C@@H](Cc1cccc(F)c1)[C@H](O)CN[C@H]1CC2(CCC2)Oc2c1cc(CC(C)C)cc2-n1ccnc1 [compound 520] | 144 µL/min/mg | 0.1 µM | 32 µL/min/mg | – | – | – | 0.9 µM | IC50 [2, 13]: 0.018 µM; IC50 [4, 15]: 0.009 µM
12 | COCC(=O)N[C@@H](Cc1cccc(-c2nccs2)c1)[C@H](O)CN[C@H]1CC2(CCC2)Oc2ncc([C@@H]3CC3(C)C)cc21 [compound 857, N-((1S,2R)-3-(((4′S)-6′-((1R)-2,2-dimethylcyclopropyl)-3′,4′-dihydrospiro[cyclobutane-1,2′-pyrano[2,3-b]pyridin]-4′-yl)amino)-2-hydroxy-1-(3-(1,3-thiazol-2-yl)benzyl)propyl)-2-methoxyacetamide] | 46 µL/min/mg | 0.1 µM | 51 µL/min/mg | 0.35 µM | – | – | – | IC50 [2, 5]: 0.004 µM; IC50 [4, 7]: 0.008 µM
